# Data: PubChem BioAssay (NCI)
#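 Dose response: 5 concentrations. Exposure: 48 h. Format: 96-well plates. Endpoint: linear interpolation; highest concentration if not reached. Abbreviation: GI50, concentration required for 50% inhibition of growth. TGI denotes the concentration required for complete inhibition of growth.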
# Assays:
# Test in all cases: NCI-60 cell line screen, 48 h
# [1] = test system: RPMI-8226 leukemia
# [2] = test system: MOLT-4 leukemia
# [3] = test system: RXF 393 renal
# [4] = test system: CCRF-CEM leukemia
# [5] = test system: CAKI-1 renal
# [6] = test system: DU-145 prostate
# [7] = test system: IGROV1 ovarian
# [8] = test system: A498 renal
# [9] = test system: NCI-H226 lung
# [10] = test system: NCI-H522 lung
# [11] = test system: SK-MEL-28 melanoma
# [12] = test system: OVCAR-4 ovarian
# [13] = test system: OVCAR-8 ovarian
# [14] = test system: HCT-116 colon
# [15] = test system: MDA-MB-435
# [16] = test system: HT29 colon
# [17] = test system: COLO 205 colon
# [18] = test system: HS 578T breast
# [19] = test system: ACHN renal
# [20] = test system: BT-549 breast
# [21] = test system: HCC-2998 colon
# [22] = test system: SF-268 CNS
# [23] = test system: SK-OV-3 ovarian
# [24] = test system: U251 CNS
# [25] = test system: A549 NSCLC
# [26] = test system: SR leukemia
# [27] = test system: SNB-75 CNS
# [28] = test system: SN12C renal
# [29] = test system: NCI-H460 lung
# [30] = test system: HOP-62 NSCLC
# [31] = test system: LOX IMVI melanoma
# [32] = test system: EKVX NSCLC
# [33] = test system: KM12 colon
# [34] = test system: SK-MEL-5 melanoma
# [35] = test system: TK-10 renal
# [36] = test system: MCF7 breast
# [37] = test system: UACC-257 melanoma
# [38] = test system: PC-3 prostate
# [39] = test system: SF-295 CNS
# [40] = test system: HOP-92 NSCLC
# [41] = test system: OVCAR-3 ovarian
# [42] = test system: MDA-MB-231 breast
# [43] = test system: SF-539 CNS
# [44] = test system: NCI/ADR-RES ovarian
# [45] = test system: 786-0 renal
# [46] = test system: NCI-H23 lung
# [47] = test system: HCT-15 colon
# [48] = test system: SNB-19 CNS
# [49] = test system: UO-31 renal
# [50] = test system: UACC-62 melanoma
# [51] = test system: MALME-3M melanoma
# [52] = test system: M14 melanoma
# [53] = test system: HL-60(TB) leukemia
# [54] = test system: SW-620 colon
# [55] = test system: T-47D breast
# [56] = test system: OVCAR-5 ovarian
# [57] = test system: K-562 leukemia
# [58] = test system: SK-MEL-2 melanoma
structure (smiles),measurement,setting,value
COC(=O)[C@H]1C(=O)[C@@]2(C)[C@H]([C@H](OC(=O)c3ccccc3)[C@]3(O)C[C@H](OC(=O)[C@H](O)[C@@H](NC(=O)c4ccc(F)cc4)c4ccccc4)C(C)=C1C3(C)C)[C@]1(OC(C)=O)CO[C@@H]1C[C@@H]2O,GI50,[1],4.84 nM
same,TGI,[1],271 nM
same,GI50,[2],10.1 nM
same,TGI,[2],3420 nM
same,GI50,[3],15.2 nM
same,TGI,[3],> 25000 nM
same,GI50,[4],6.85 nM
same,TGI,[4],> 8690 nM
same,GI50,[5],120 nM
same,TGI,[5],> 16300 nM
same,GI50,[6],7.08 nM
same,TGI,[6],23 nM
same,GI50,[7],4.78 nM
same,TGI,[7],> 7290 nM
same,GI50,[8],31.5 nM
same,GI50,[9],612 nM
same,TGI,[9],> 25000 nM
same,GI50,[10],13.5 nM
same,TGI,[10],> 7400 nM
same,GI50,[11],15.4 nM
same,TGI,[11],22000 nM
same,GI50,[12],633 nM
same,TGI,[12],> 25000 nM
same,GI50,[13],17.1 nM
same,TGI,[13],> 25000 nM
same,GI50,[14],4.32 nM
same,TGI,[14],> 25000 nM
same,GI50,[15],2.5 nM
same,TGI,[15],6.04 nM
same,GI50,[16],3.78 nM
same,TGI,[16],> 25000 nM
same,GI50,[17],7.09 nM
same,TGI,[17],56.5 nM
same,GI50,[18],3.63 nM
same,TGI,[18],23.1 nM
same,GI50,[19],1600 nM
same,TGI,[19],> 25000 nM
same,GI50,[20],11 nM
same,TGI,[20],833 nM
same,GI50,[21],9.09 nM
same,TGI,[21],> 9550 nM
same,GI50,[22],15.1 nM
same,TGI,[22],> 25000 nM
same,GI50,[23],11.5 nM
same,TGI,[23],> 25000 nM
same,GI50,[24],10.3 nM
same,TGI,[24],> 25000 nM
same,GI50,[25],11.6 nM
same,TGI,[25],> 25000 nM
same,GI50,[26],4.28 nM
same,TGI,[26],1690 nM
same,GI50,[27],2.73 nM
same,TGI,[27],44.3 nM
same,GI50,[28],10.4 nM
same,TGI,[28],> 25000 nM
same,GI50,[29],7.39 nM
same,TGI,[29],3640 nM
same,GI50,[30],11.2 nM
same,TGI,[30],> 6580 nM
same,GI50,[31],9.74 nM
same,TGI,[31],> 25000 nM
same,GI50,[32],18.1 nM
same,TGI,[32],> 25000 nM
same,GI50,[33],6.29 nM
same,GI50,[34],10.4 nM
same,TGI,[34],> 9790 nM
same,GI50,[35],67.6 nM
same,TGI,[35],3910 nM
same,GI50,[36],3.54 nM
same,TGI,[36],> 25000 nM
same,GI50,[37],67.3 nM
same,TGI,[37],> 25000 nM
same,GI50,[38],16.4 nM
same,TGI,[38],> 25000 nM
same,GI50,[39],9.19 nM
same,TGI,[39],63.9 nM
same,TGI,[40],> 14500 nM
same,GI50,[41],7.22 nM
same,TGI,[41],22.2 nM
same,GI50,[42],41.4 nM
same,TGI,[42],> 14400 nM
same,GI50,[43],7.49 nM
same,TGI,[43],75.3 nM
same,GI50,[44],4610 nM
same,TGI,[44],> 25000 nM
same,GI50,[45],80.5 nM
same,GI50,[46],20.2 nM
same,TGI,[46],> 25000 nM
same,GI50,[47],553 nM
same,TGI,[47],> 25000 nM
same,GI50,[48],16.6 nM
same,TGI,[48],> 25000 nM
same,GI50,[49],1890 nM
same,TGI,[49],> 25000 nM
same,GI50,[50],12.2 nM
same,TGI,[50],> 25000 nM
same,GI50,[51],18.7 nM
same,TGI,[51],> 25000 nM
same,GI50,[52],11.4 nM
same,TGI,[52],105 nM
same,GI50,[53],6.14 nM
same,TGI,[53],18.4 nM
same,GI50,[54],8.21 nM
same,TGI,[54],> 25000 nM
same,GI50,[55],10.6 nM
same,TGI,[55],> 25000 nM
same,GI50,[56],14.9 nM
same,TGI,[56],> 25000 nM
same,GI50,[57],9.17 nM
Cc1cccc(NC(=S)Nc2ccc([N+](=O)[O-])cc2)n1,TGI,[1],> 100000 nM
same,TGI,[2],> 100000 nM
same,TGI,[3],> 100000 nM
same,TGI,[4],> 100000 nM
same,TGI,[5],> 100000 nM
same,TGI,[6],> 100000 nM
same,TGI,[7],> 100000 nM
same,TGI,[8],> 100000 nM
same,TGI,[9],> 100000 nM
same,TGI,[11],> 100000 nM
same,TGI,[12],> 100000 nM
same,TGI,[13],> 100000 nM
same,TGI,[14],> 100000 nM
same,TGI,[15],> 100000 nM
same,TGI,[16],> 100000 nM
same,TGI,[17],> 100000 nM
same,TGI,[18],> 100000 nM
same,TGI,[19],> 100000 nM
same,TGI,[20],> 100000 nM
same,TGI,[21],> 100000 nM
same,TGI,[22],> 100000 nM
same,TGI,[23],> 100000 nM
same,TGI,[24],> 100000 nM
same,TGI,[26],> 100000 nM
same,TGI,[27],> 100000 nM
same,TGI,[29],> 100000 nM
same,TGI,[30],> 100000 nM
same,TGI,[31],> 100000 nM
same,TGI,[32],> 100000 nM
same,TGI,[33],> 100000 nM
same,TGI,[34],> 100000 nM
same,TGI,[35],> 100000 nM
same,TGI,[36],> 100000 nM
same,TGI,[37],> 100000 nM
same,TGI,[38],> 100000 nM
same,TGI,[39],> 100000 nM
same,TGI,[58],> 100000 nM
same,TGI,[40],> 100000 nM
same,TGI,[42],> 100000 nM
same,TGI,[43],> 100000 nM
same,TGI,[44],> 100000 nM
same,TGI,[45],> 100000 nM
same,TGI,[46],> 100000 nM
same,TGI,[47],> 100000 nM
same,TGI,[48],> 100000 nM
same,TGI,[49],> 100000 nM
same,TGI,[50],> 100000 nM
same,TGI,[52],> 100000 nM
same,TGI,[53],> 100000 nM
same,TGI,[54],> 100000 nM
same,TGI,[55],> 100000 nM
same,TGI,[57],> 100000 nM
